Measured values reported in PubChem BioAssay (NCI).
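These data come from cells grown in 96-well plates and exposed to compound for 48 hours at five concentrations. TGI: total growth inhibition.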

Assays:
Assay in all cases: NCI tumour cell line growth inhibition, 48 h
IGROV1 ovarian = test system: IGROV1 ovarian
T-47D breast = test system: T-47D breast
NCI-H460 lung = test system: NCI-H460 lung
HS 578T breast = test system: HS 578T breast
MALME-3M melanoma = test system: MALME-3M melanoma
HL-60(TB) leukemia = test system: HL-60(TB) leukemia
SNB-19 CNS = test system: SNB-19 CNS
ACHN renal = test system: ACHN renal
CAKI-1 renal = test system: CAKI-1 renal
OVCAR-3 ovarian = test system: OVCAR-3 ovarian
HCT-15 colon = test system: HCT-15 colon
SN12C renal = test system: SN12C renal
NCI-H226 lung = test system: NCI-H226 lung
PC-3 prostate = test system: PC-3 prostate
MCF7 breast = test system: MCF7 breast
SF-295 CNS = test system: SF-295 CNS
UO-31 renal = test system: UO-31 renal
M14 melanoma = test system: M14 melanoma
SNB-75 CNS = test system: SNB-75 CNS
HCC-2998 colon = test system: HCC-2998 colon
HT29 colon = test system: HT29 colon
TK-10 renal = test system: TK-10 renal
SF-539 CNS = test system: SF-539 CNS
SK-MEL-5 melanoma = test system: SK-MEL-5 melanoma
MDA-N = test system: MDA-N
MDA-MB-231 breast = test system: MDA-MB-231 breast
U251 CNS = test system: U251 CNS
SK-MEL-28 melanoma = test system: SK-MEL-28 melanoma
NCI-H23 lung = test system: NCI-H23 lung
K-562 leukemia = test system: K-562 leukemia
COLO 205 colon = test system: COLO 205 colon
UACC-257 melanoma = test system: UACC-257 melanoma
OVCAR-5 ovarian = test system: OVCAR-5 ovarian
SW-620 colon = test system: SW-620 colon
OVCAR-8 ovarian = test system: OVCAR-8 ovarian
NCI-H522 lung = test system: NCI-H522 lung
BT-549 breast = test system: BT-549 breast
SF-268 CNS = test system: SF-268 CNS
SK-MEL-2 melanoma = test system: SK-MEL-2 melanoma
786-0 renal = test system: 786-0 renal
CCRF-CEM leukemia = test system: CCRF-CEM leukemia
NCI/ADR-RES ovarian = test system: NCI/ADR-RES ovarian
KM12 colon = test system: KM12 colon
HOP-62 NSCLC = test system: HOP-62 NSCLC
MOLT-4 leukemia = test system: MOLT-4 leukemia
DU-145 prostate = test system: DU-145 prostate
MDA-MB-435 = test system: MDA-MB-435
A549 NSCLC = test system: A549 NSCLC
HCT-116 colon = test system: HCT-116 colon
A498 renal = test system: A498 renal
UACC-62 melanoma = test system: UACC-62 melanoma
SK-OV-3 ovarian = test system: SK-OV-3 ovarian
SR leukemia = test system: SR leukemia
OVCAR-4 ovarian = test system: OVCAR-4 ovarian
HOP-92 NSCLC = test system: HOP-92 NSCLC
RPMI-8226 leukemia = test system: RPMI-8226 leukemia
RXF 393 renal = test system: RXF 393 renal
LOX IMVI melanoma = test system: LOX IMVI melanoma
EKVX NSCLC = test system: EKVX NSCLC

CN(C)CCCNC(=O)N/N=C/c1ccc([N+](=O)[O-])cc1
TGI (IGROV1 ovarian): > 100 µM
TGI (T-47D breast): > 100 µM
TGI (NCI-H460 lung): > 100 µM
TGI (HS 578T breast): > 100 µM
TGI (MALME-3M melanoma): > 100 µM
TGI (HL-60(TB) leukemia): > 100 µM
TGI (SNB-19 CNS): > 100 µM
TGI (ACHN renal): > 100 µM
TGI (CAKI-1 renal): > 100 µM
TGI (OVCAR-3 ovarian): > 100 µM
TGI (HCT-15 colon): > 100 µM
TGI (SN12C renal): > 100 µM
TGI (NCI-H226 lung): > 100 µM
TGI (PC-3 prostate): > 100 µM
TGI (MCF7 breast): > 100 µM
TGI (SF-295 CNS): > 100 µM
TGI (UO-31 renal): > 100 µM
TGI (M14 melanoma): > 100 µM
TGI (SNB-75 CNS): > 100 µM
TGI (HCC-2998 colon): > 100 µM
TGI (HT29 colon): > 100 µM
TGI (TK-10 renal): > 100 µM
TGI (SF-539 CNS): > 100 µM
TGI (SK-MEL-5 melanoma): > 100 µM
TGI (MDA-N): > 100 µM
TGI (MDA-MB-231 breast): > 100 µM
TGI (U251 CNS): > 100 µM
TGI (SK-MEL-28 melanoma): > 100 µM
TGI (NCI-H23 lung): > 100 µM
TGI (K-562 leukemia): > 100 µM
TGI (COLO 205 colon): > 100 µM
TGI (UACC-257 melanoma): > 100 µM
TGI (OVCAR-5 ovarian): > 100 µM
TGI (SW-620 colon): > 100 µM
TGI (OVCAR-8 ovarian): > 100 µM
TGI (NCI-H522 lung): > 100 µM
TGI (BT-549 breast): > 100 µM
TGI (SF-268 CNS): > 100 µM
TGI (SK-MEL-2 melanoma): > 100 µM
TGI (786-0 renal): > 100 µM
TGI (CCRF-CEM leukemia): > 100 µM
TGI (NCI/ADR-RES ovarian): > 100 µM
TGI (KM12 colon): > 100 µM
TGI (HOP-62 NSCLC): > 100 µM
TGI (MOLT-4 leukemia): > 100 µM
TGI (DU-145 prostate): > 100 µM
TGI (MDA-MB-435): > 100 µM
TGI (A549 NSCLC): > 100 µM
TGI (HCT-116 colon): > 100 µM
TGI (A498 renal): > 100 µM
TGI (UACC-62 melanoma): > 100 µM
TGI (SK-OV-3 ovarian): > 100 µM
TGI (SR leukemia): > 100 µM

O=C1CC(=O)NC(=NN2C(=O)CSC2c2ccccc2)N1 (configuration not stated)
TGI (IGROV1 ovarian): > 100 µM
TGI (T-47D breast): > 100 µM
TGI (NCI-H460 lung): > 100 µM
TGI (HS 578T breast): > 100 µM
TGI (MALME-3M melanoma): > 100 µM
TGI (ACHN renal): > 100 µM
TGI (CAKI-1 renal): > 100 µM
TGI (OVCAR-3 ovarian): > 100 µM
TGI (HCT-15 colon): > 100 µM
TGI (SN12C renal): > 100 µM
TGI (NCI-H226 lung): > 100 µM
TGI (PC-3 prostate): > 100 µM
TGI (MCF7 breast): > 100 µM
TGI (SF-295 CNS): > 100 µM
TGI (UO-31 renal): > 100 µM
TGI (M14 melanoma): > 100 µM
TGI (SNB-75 CNS): > 100 µM
TGI (HCC-2998 colon): > 100 µM
TGI (HT29 colon): > 100 µM
TGI (TK-10 renal): > 100 µM
TGI (SF-539 CNS): > 100 µM
TGI (SK-MEL-5 melanoma): > 100 µM
TGI (MDA-N): > 100 µM
TGI (MDA-MB-231 breast): > 100 µM
TGI (U251 CNS): > 100 µM
TGI (SK-MEL-28 melanoma): > 100 µM
TGI (OVCAR-4 ovarian): > 100 µM
TGI (HOP-92 NSCLC): > 100 µM
TGI (NCI-H23 lung): > 100 µM
TGI (K-562 leukemia): > 100 µM
TGI (COLO 205 colon): > 100 µM
TGI (UACC-257 melanoma): > 100 µM
TGI (OVCAR-5 ovarian): > 100 µM
TGI (SW-620 colon): > 100 µM
TGI (OVCAR-8 ovarian): > 100 µM
TGI (RPMI-8226 leukemia): > 100 µM
TGI (NCI-H522 lung): > 100 µM
TGI (BT-549 breast): > 100 µM
TGI (SF-268 CNS): > 100 µM
TGI (SK-MEL-2 melanoma): > 100 µM
TGI (786-0 renal): > 100 µM
TGI (CCRF-CEM leukemia): > 100 µM
TGI (RXF 393 renal): > 100 µM
TGI (NCI/ADR-RES ovarian): > 100 µM
TGI (KM12 colon): > 100 µM
TGI (HOP-62 NSCLC): > 100 µM
TGI (MOLT-4 leukemia): > 100 µM
TGI (DU-145 prostate): > 100 µM
TGI (MDA-MB-435): > 100 µM
TGI (A549 NSCLC): > 100 µM
TGI (HCT-116 colon): > 100 µM
TGI (A498 renal): > 100 µM
TGI (UACC-62 melanoma): > 100 µM
TGI (SK-OV-3 ovarian): > 100 µM
TGI (SR leukemia): > 100 µM

C#C[C@]1(O)CC[C@H]2[C@@H]3CCC4=CC(=NCCOC(=O)c5cccc6cc7ccccc7nc56)CC[C@@H]4[C@H]3CC[C@@]21C
TGI (IGROV1 ovarian): 30.8 µM
TGI (T-47D breast): 75.9 µM
TGI (NCI-H460 lung): 35.8 µM
TGI (HS 578T breast): 63.8 µM
TGI (MALME-3M melanoma): 74.4 µM
TGI (HL-60(TB) leukemia): > 100 µM
TGI (SNB-19 CNS): > 100 µM
TGI (ACHN renal): > 100 µM
TGI (CAKI-1 renal): > 100 µM
TGI (OVCAR-3 ovarian): > 100 µM
TGI (HCT-15 colon): 43.1 µM
TGI (LOX IMVI melanoma): 24.8 µM
TGI (SN12C renal): > 100 µM
TGI (NCI-H226 lung): > 100 µM
TGI (PC-3 prostate): 34.9 µM
TGI (MCF7 breast): 69.4 µM
TGI (SF-295 CNS): 67.6 µM
TGI (UO-31 renal): > 100 µM
TGI (M14 melanoma): 61.3 µM
TGI (HT29 colon): > 100 µM
TGI (TK-10 renal): > 100 µM
TGI (SK-MEL-5 melanoma): > 100 µM
TGI (MDA-N): > 100 µM
TGI (MDA-MB-231 breast): 44.8 µM
TGI (U251 CNS): 25.2 µM
TGI (SK-MEL-28 melanoma): > 100 µM
TGI (OVCAR-4 ovarian): > 100 µM
TGI (HOP-92 NSCLC): 48.6 µM
TGI (NCI-H23 lung): 62.5 µM
TGI (K-562 leukemia): > 100 µM
TGI (COLO 205 colon): > 100 µM
TGI (UACC-257 melanoma): > 100 µM
TGI (OVCAR-5 ovarian): > 100 µM
TGI (SW-620 colon): > 100 µM
TGI (OVCAR-8 ovarian): 21.9 µM
TGI (NCI-H522 lung): 45.6 µM
TGI (BT-549 breast): 74.2 µM
TGI (SF-268 CNS): 72.3 µM
TGI (SK-MEL-2 melanoma): 53.9 µM
TGI (786-0 renal): > 100 µM
TGI (CCRF-CEM leukemia): > 100 µM
TGI (EKVX NSCLC): > 100 µM
TGI (RXF 393 renal): 28.3 µM
TGI (NCI/ADR-RES ovarian): 81.3 µM
TGI (KM12 colon): 97.2 µM
TGI (HOP-62 NSCLC): > 100 µM
TGI (MOLT-4 leukemia): > 100 µM
TGI (DU-145 prostate): > 100 µM
TGI (MDA-MB-435): > 100 µM
TGI (A549 NSCLC): > 100 µM
TGI (HCT-116 colon): > 100 µM
TGI (A498 renal): > 100 µM
TGI (UACC-62 melanoma): 96.1 µM
TGI (SK-OV-3 ovarian): > 100 µM
